According to ChEMBL document CHEMBL5046271, “Design, Synthesis, and Biological Evaluation of 2-Formyl Tetrahydronaphthyridine Urea Derivatives as New Selective Covalently Reversible FGFR4 Inhibitors” (J Med Chem, 2022):
The source made the active and inactive calls. The calls are words filed in the database; no cut-off is given here.

Key:
BaF3 [1] = experiment: Inhibition of FGFR4 expressed in mouse BaF3-ETV6-FGFR4 cells assessed as inhibition of PLCgamma1 phosphorylation by Western blot analysis; assay type: cell-based; conditions: dose 3.7-100 nM
[2] = Half life in Sprague- Dawley rat at 25 mg/kg, po incubation upto 24 hrs by LC-MS/MS analysis; assay type: ADME, organism-based; conditions: in vivo
[3] = biological target: MAP kinase-activated protein kinase 2 (Homo sapiens) (UniProt P49137); experiment: Inhibition of human MAPKAPK2 expressed in bacterial expression system at 1000 nM by KINOMEscan assay relative to control
[4] = biological target: Fibroblast growth factor receptor 2 (Homo sapiens, UniProt P21802); experiment: Inhibition of FGFR2 (unknown origin) using Tyr 04 peptide substrate measured after 2 hrs by FRET assay
Hep 3B2 [5] = experiment: Inhibition of colony formation in human Hep 3B2.1-7 cells incubated for 10 days by crystal violet staining based assay; assay type: functional, cell-based; conditions: time 10.0 day
[6] = AUC(0 to t) in Sprague-Dawley rat at 5 mg/kg, iv incubation upto 24 hrs by LC-MS/MS analysis; assay type: ADME, organism-based; parameters: route intravenous, dose 5 mg/kg, time <=24; conditions: in vivo
[7] = biological target: MAP kinase-activated protein kinase 3 (Homo sapiens) (UniProt Q16644); experiment: Inhibition of human MAPKAPK3 expressed in bacterial expression system at 1000 nM by KINOMEscan assay relative to control
[8] = Toxicity in mouse assessed as induction of weight loss at 30 mg/kg, po BID administered for 12 days (reference value: < 5 %); assay type: organism-based; conditions: in vivo, 288 h, time 12 day
Hep 3B2 [9] = experiment: Antitumor activity against human Hep 3B2.1-7 cells xenografted in mouse assessed as tumor growth inhibitions at 30 mg/kg, po BID administered for 12 days; assay type: functional; conditions: Hep3B, 288 h, time 12 day, read-out: TGI
[10] = biological target: T1, Fibroblast growth factor receptor 4 (Homo sapiens, UniProt P22455); experiment: Inhibition of FGFR4 (unknown origin) using Tyr 04 peptide substrate measured after 2 hrs by FRET assay
Huh-7 = experiment: Cytotoxicity against human Huh-7 cells harboring FGF19/FGFR4 assessed as inhibition of cell growth
[11] = biological target: Platelet-derived growth factor receptor alpha (Homo sapiens) (UniProt P16234); experiment: Inhibition of human PDGFRA expressed in mammalian expression system at 1000 nM by KINOMEscan assay relative to control
BaF3 [12] = experiment: Inhibition of FGFR4 expressed in mouse BaF3-ETV6-FGFR4 cells assessed as inhibition of FRS2alpha phosphorylation by Western blot analysis; assay type: cell-based; conditions: dose 3.7-100 nM
[13] = Clearance in Sprague- Dawley rat at 5 mg/kg, iv incubation upto 24 hrs by LC-MS/MS analysis; assay type: ADME, organism-based; conditions: in vivo
[14] = AUC(0 to t) inSprague- Dawley rat at 25 mg/kg, po incubation upto 24 hrs by LC-MS/MS analysis; assay type: ADME, organism-based; parameters: route oral, dose 25 mg/kg, time <=24; conditions: Sprague-Dawley, in vivo
NCI-H1581 [15] = experiment: Inhibition of colony formation in human NCI-H1581 cells incubated for 10 days by crystal violet staining based assay; assay type: functional, cell-based; conditions: time 10.0 day
[16] = biological target: Transient receptor potential cation channel subfamily M member 7 (Homo sapiens) (UniProt Q96QT4); experiment: Inhibition of human CHAK1 at 1000 nM by KINOMEscan assay relative to control
[17] = biological target: T2, Fibroblast growth factor receptor 3 (Homo sapiens, UniProt P22607); experiment: Inhibition of human FGFR3 expressed in bacterial expression system at 1000 nM by KINOMEscan assay relative to control
Target sequence in this assay (P22607 23-806 limits assumed): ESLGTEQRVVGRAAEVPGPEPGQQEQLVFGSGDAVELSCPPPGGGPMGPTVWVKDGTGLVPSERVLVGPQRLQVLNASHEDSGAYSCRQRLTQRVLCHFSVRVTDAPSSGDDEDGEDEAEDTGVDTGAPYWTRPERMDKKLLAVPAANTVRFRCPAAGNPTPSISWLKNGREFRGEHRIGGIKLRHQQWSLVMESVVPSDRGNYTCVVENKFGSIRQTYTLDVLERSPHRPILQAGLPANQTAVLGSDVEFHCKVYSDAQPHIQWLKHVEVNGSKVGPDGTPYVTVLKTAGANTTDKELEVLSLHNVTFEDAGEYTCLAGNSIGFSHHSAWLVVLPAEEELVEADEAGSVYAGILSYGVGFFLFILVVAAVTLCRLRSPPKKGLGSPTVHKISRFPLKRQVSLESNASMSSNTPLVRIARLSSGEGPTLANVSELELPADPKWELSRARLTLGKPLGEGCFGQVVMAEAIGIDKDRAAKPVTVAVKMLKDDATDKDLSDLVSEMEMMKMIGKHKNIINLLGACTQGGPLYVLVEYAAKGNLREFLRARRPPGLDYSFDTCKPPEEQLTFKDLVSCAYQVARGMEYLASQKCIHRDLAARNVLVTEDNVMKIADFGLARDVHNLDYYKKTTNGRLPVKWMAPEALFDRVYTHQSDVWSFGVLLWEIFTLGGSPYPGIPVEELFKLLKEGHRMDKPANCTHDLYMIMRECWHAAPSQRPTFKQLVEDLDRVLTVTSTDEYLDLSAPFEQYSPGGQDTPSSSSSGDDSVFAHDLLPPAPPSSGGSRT

[18] = Half life in Sprague- Dawley rat at 5 mg/kg, iv incubation upto 24 hrs by LC-MS/MS analysis; assay type: ADME, organism-based; conditions: in vivo
NCI-H1581 [19] = experiment: Cytotoxicity against human NCI-H1581 cells harboring FGF19/FGFR4 assessed as inhibition of cell growth
[20] = Oral bioavailability in Sprague- Dawley rat at 25 mg/kg incubation upto 24 hrs by LC-MS/MS analysis; assay type: ADME, organism-based; conditions: in vivo
[21] = Cmax in Sprague-Dawley rat at 25 mg/kg, po incubation upto 24 hrs by LC-MS/MS analysis; assay type: ADME, organism-based; parameters: route oral, dose 25 mg/kg, time <=24; conditions: in vivo
MDA-MB-453 = experiment: Cytotoxicity against human MDA-MB-453 cells harboring FGF19/FGFR4 assessed as inhibition of cell growth
[22] = biological target: Proto-oncogene tyrosine-protein kinase receptor Ret (Homo sapiens) (UniProt P07949); experiment: Inhibition of human RET expressed in bacterial expression system at 1000 nM by KINOMEscan assay relative to control
[23] = system: Fibroblast growth factor receptor 2 (Homo sapiens), P21802 [N549H]; experiment: Inhibition of human FGFR2 N549H mutant expressed in bacterial expression system at 1000 nM by KINOMEscan assay relative to control
BaF3 [24] = experiment: Inhibition of FGFR4 expressed in mouse BaF3-ETV6-FGFR4 cells assessed as inhibition of ERK phosphorylation by Western blot analysis; assay type: cell-based; conditions: dose 3.7-100 nM
[25] = biological target: T3, Fibroblast growth factor receptor 1 (Homo sapiens, UniProt P11362); experiment: Inhibition of human FGFR1 expressed in bacterial expression system at 1000 nM by KINOMEscan assay relative to control
Hep 3B2 [26] = experiment: Cytotoxicity against human Hep 3B2.1-7 cells harboring FGF19/FGFR4 assessed as inhibition of cell growth; conditions: Hep3B
[27] = biological target: T3, Fibroblast growth factor receptor 1; experiment: Inhibition of FGFR1 (unknown origin) using Tyr 04 peptide substrate measured after 2 hrs by FRET assay
[28] = Cmax in Sprague-Dawley rat at 5 mg/kg, iv incubation upto 24 hrs by LC-MS/MS analysis; assay type: ADME, organism-based; parameters: route intravenous, dose 5 mg/kg, time <=24; conditions: in vivo
[29] = biological target: Phosphatidylinositol 4-kinase alpha (Homo sapiens) (UniProt P42356); experiment: Inhibition of human PIK4 at 1000 nM by KINOMEscan assay relative to control
[30] = biological target: T1, Fibroblast growth factor receptor 4; experiment: Binding affinity to FGFR4 (unknown origin) assessed as dissociation constant by competition binding assay
[31] = Toxicity in mouse assessed as mortality at 30 mg/kg, po BID administered for 12 days (reference value: < 5 %); assay type: organism-based; conditions: in vivo, 288 h, time 12 day
Hep 3B2 [32] = experiment: Antiproliferative activity in human Hep 3B2.1-7 cells assessed as reduction of cell number measured after 72 hrs by CCK8 assay; assay type: functional, cell-based
[33] = biological target: Platelet-derived growth factor receptor beta (Homo sapiens) (UniProt P09619); experiment: Inhibition of human PDGFRB expressed in bacterial expression system at 1000 nM by KINOMEscan assay relative to control
[34] = biological target: T2, Fibroblast growth factor receptor 3; experiment: Inhibition of FGFR3 (unknown origin) using Tyr 04 peptide substrate measured after 2 hrs by FRET assay
[35] = biological target: T4, Dual specificity protein kinase TTK (Homo sapiens) (UniProt P33981); experiment: Inhibition of human TTK at 1000 nM by KINOMEscan assay relative to control
T4 sequence (whole entry): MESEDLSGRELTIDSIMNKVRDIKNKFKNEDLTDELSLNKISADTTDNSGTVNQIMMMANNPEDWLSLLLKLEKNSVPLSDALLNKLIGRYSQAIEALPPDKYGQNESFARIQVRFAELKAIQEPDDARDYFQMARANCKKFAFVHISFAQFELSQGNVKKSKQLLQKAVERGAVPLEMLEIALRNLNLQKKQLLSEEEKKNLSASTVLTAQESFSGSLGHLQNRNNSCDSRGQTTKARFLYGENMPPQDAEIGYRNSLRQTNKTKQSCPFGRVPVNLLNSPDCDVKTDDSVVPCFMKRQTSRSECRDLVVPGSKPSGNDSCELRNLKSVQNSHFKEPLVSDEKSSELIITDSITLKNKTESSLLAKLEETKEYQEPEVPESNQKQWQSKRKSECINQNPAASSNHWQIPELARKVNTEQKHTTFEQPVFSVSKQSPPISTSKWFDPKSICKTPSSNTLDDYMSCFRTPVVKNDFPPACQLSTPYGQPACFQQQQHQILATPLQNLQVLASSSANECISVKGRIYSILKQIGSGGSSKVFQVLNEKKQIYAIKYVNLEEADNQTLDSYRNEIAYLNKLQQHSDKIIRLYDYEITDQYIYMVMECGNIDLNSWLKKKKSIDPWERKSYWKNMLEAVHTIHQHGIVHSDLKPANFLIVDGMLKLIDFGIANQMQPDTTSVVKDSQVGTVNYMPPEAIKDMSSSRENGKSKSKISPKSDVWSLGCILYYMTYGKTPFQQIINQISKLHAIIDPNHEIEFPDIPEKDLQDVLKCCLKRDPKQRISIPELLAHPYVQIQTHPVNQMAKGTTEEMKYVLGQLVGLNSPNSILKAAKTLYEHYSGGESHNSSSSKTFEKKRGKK

NCI-H1581 [36] = experiment: Antiproliferative activity in human NCI-H1581 cells assessed as reduction of cell number measured after 72 hrs by CCK8 assay; assay type: functional, cell-based
[37] = biological target: Receptor-type tyrosine-protein kinase FLT3 (Homo sapiens) (UniProt P36888); experiment: Inhibition of human FLT3 expressed in bacterial expression system at 1000 nM by KINOMEscan assay relative to control

T1 sequence (P22455 whole entry): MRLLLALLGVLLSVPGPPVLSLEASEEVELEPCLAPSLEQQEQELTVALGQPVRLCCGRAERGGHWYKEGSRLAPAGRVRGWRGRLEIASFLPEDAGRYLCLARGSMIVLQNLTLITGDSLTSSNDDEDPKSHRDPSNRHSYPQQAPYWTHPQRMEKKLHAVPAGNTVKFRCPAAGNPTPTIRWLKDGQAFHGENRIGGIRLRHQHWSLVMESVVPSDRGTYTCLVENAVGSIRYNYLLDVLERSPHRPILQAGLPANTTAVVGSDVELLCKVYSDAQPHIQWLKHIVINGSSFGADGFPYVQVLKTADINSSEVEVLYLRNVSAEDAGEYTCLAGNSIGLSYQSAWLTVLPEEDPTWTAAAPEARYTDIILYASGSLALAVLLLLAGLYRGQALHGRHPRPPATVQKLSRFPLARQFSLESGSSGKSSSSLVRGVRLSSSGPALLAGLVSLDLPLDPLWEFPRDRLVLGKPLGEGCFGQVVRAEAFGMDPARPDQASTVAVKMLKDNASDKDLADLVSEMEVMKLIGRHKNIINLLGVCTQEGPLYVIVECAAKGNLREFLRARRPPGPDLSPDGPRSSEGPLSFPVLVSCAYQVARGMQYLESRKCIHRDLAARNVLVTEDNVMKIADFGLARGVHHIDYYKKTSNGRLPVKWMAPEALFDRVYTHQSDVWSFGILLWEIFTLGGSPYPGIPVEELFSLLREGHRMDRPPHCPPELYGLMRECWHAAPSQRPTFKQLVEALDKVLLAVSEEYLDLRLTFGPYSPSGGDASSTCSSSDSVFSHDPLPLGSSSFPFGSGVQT
Phosphatidylinositol 4-kinase alpha (Homo sapiens), sequence (P42356 whole entry, looked up): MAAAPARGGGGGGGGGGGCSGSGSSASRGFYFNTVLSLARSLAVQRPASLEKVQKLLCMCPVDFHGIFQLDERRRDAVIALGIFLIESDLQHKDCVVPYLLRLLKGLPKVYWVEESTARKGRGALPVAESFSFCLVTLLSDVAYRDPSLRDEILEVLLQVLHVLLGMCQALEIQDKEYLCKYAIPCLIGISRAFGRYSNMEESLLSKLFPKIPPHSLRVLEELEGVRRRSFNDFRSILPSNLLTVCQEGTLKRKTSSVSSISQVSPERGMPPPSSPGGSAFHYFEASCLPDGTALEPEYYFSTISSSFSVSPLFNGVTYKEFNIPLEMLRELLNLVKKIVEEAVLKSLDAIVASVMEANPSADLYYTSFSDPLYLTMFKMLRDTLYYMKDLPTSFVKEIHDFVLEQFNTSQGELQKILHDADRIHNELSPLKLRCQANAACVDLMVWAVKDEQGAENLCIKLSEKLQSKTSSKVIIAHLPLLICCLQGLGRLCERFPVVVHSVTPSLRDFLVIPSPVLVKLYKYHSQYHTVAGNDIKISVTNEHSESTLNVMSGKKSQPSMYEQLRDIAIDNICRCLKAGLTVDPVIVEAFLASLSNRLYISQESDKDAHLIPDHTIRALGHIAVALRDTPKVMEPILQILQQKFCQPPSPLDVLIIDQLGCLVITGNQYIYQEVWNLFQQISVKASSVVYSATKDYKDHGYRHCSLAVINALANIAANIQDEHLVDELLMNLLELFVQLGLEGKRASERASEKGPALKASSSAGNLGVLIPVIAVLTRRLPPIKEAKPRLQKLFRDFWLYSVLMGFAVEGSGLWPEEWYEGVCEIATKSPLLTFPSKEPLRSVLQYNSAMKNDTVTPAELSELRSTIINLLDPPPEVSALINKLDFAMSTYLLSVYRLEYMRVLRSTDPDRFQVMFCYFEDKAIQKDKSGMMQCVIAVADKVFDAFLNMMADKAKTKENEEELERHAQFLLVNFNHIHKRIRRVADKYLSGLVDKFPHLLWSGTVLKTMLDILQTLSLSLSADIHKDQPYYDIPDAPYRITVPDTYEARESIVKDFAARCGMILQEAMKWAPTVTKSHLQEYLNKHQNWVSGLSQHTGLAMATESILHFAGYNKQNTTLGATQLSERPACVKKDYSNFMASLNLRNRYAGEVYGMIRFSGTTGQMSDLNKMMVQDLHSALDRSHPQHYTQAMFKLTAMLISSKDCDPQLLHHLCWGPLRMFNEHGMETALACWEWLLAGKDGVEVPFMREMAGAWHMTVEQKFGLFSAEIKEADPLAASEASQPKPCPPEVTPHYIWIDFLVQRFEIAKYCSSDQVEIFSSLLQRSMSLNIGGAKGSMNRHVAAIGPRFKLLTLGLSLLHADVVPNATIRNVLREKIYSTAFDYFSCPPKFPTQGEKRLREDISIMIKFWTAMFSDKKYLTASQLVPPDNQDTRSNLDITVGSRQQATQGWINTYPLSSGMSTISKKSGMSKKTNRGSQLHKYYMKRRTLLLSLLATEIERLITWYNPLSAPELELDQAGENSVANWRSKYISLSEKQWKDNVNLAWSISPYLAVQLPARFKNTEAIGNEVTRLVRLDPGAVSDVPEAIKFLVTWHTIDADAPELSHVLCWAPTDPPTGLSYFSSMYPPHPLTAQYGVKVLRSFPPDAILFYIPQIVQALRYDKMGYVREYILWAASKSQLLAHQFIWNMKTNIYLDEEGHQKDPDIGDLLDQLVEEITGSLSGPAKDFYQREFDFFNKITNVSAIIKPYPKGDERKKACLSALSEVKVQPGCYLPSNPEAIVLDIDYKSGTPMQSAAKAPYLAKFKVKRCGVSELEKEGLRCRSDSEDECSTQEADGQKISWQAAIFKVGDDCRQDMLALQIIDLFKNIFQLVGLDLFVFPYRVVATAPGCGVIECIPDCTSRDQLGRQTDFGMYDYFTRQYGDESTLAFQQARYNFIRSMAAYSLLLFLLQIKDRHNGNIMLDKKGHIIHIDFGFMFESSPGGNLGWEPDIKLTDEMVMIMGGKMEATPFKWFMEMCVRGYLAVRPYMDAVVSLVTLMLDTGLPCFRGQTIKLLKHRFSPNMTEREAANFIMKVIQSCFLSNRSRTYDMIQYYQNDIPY
Fibroblast growth factor receptor 2, sequence (P21802 whole entry): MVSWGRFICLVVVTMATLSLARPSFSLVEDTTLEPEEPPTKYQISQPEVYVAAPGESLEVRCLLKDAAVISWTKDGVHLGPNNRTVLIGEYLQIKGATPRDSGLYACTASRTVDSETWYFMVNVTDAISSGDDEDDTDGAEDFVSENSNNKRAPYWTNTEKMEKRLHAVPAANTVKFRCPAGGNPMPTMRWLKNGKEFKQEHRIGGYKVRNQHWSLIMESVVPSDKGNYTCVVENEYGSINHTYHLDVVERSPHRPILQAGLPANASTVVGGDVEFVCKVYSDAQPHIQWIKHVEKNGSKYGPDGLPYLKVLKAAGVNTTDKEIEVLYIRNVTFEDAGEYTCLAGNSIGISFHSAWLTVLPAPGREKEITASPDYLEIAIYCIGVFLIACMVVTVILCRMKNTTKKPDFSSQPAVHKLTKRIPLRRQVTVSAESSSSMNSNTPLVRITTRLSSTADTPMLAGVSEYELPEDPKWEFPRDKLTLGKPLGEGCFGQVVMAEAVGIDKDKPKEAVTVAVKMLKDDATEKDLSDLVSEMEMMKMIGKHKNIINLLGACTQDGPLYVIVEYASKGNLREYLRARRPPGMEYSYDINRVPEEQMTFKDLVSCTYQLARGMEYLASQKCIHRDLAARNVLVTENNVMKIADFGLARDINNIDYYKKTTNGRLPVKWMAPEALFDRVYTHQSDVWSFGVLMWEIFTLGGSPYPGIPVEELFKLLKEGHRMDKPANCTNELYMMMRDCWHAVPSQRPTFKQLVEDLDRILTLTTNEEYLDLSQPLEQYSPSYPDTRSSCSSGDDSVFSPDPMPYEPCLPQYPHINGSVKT
MAP kinase-activated protein kinase 3 (Homo sapiens), sequence (Q16644 whole entry, looked up): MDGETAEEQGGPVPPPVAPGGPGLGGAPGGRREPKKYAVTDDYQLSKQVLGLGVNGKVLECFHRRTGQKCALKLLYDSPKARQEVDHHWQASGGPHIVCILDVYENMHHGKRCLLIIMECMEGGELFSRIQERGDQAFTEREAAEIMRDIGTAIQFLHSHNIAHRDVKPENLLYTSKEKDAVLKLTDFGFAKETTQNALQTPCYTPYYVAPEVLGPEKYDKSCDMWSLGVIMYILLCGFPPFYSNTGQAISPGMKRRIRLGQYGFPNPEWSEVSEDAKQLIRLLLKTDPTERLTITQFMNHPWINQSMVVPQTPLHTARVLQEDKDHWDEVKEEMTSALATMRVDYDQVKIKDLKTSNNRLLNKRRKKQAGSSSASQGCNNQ
Fibroblast growth factor receptor 2 (Homo sapiens), P21802 [N549H], sequence (P21802 whole entry N549H): as the sequence (P21802 whole entry) above, with N549H counted along it

Compound: CC(C)Oc1cc(NC(=O)N2CCCc3cc(CN4CCN(C)CC4=O)c(C=O)nc32)ncc1C#Cc1cccnc1
- inhibition (BaF3 [1]): Dose-Dependent Effect
- half-life [2]: 3.06 h
- inhibition [3]: -3%
- IC50 [4]: > 10000 nM
- Activity (Hep 3B2 [5]): Active
- AUC(0-t) at 24 h [6]: 15300 ng·h/mL
- inhibition [7]: 3%
- Activity [8]: Non-Toxic
- inhibition in vivo at 30 mg/kg (Hep 3B2 [9]): 95.2%
- IC50 [10]: 5.4 nM
- IC50 (Huh-7): 2.4 nM
- inhibition [11]: 5%
- inhibition (BaF3 [12]): Dose-Dependent Effect
- clearance [13]: 6.15 mL/min/kg
- AUC(0-t) at 24 h [14]: 39000 ng·h/mL
- Activity (NCI-H1581 [15]): Active
- inhibition [16]: 8%
- inhibition [17]: 10%
- half-life [18]: 0.89 h
- IC50 (NCI-H1581 [19]): > 3000 nM
- bioavailability [20]: 51%
- Cmax [21]: 8560 ng/mL
- IC50 (MDA-MB-453): 140 nM
- inhibition [22]: -2%
- inhibition [23]: 1%
- inhibition (BaF3 [24]): Dose-Dependent Effect
- inhibition [25]: -5%
- IC50 (Hep 3B2 [26]): 104 nM
- IC50 [27]: > 10000 nM
- Cmax [28]: 11100 ng/mL
- inhibition [29]: 6%
- Kd [30]: 6.2 nM
- Activity [31]: Non-Toxic
- Activity (Hep 3B2 [32]): Active
- inhibition [33]: 5%
- IC50 [34]: > 10000 nM
- inhibition [35]: 10%
- Activity (NCI-H1581 [36]): Active
- inhibition [37]: 10%
